The test system of data set [1] is dengue virus type 2. As to the kind of experiment: Antiviral activity against Dengue virus 2 NGC infected in human HuH7 cells assessed as reduction in viral titer after 24 hrs. It counts as functional. As to conditions: Huh-7, 24 h.
Data set [2] concerns the target T1, Genome polyprotein (dengue virus type 2, UniProt P29990). As to the kind of experiment: Inhibition of Dengue virus 2 NS3 helicase incubated for 2 mins followed by ATP addition.
Target sequence in this assay (P29990 1476-2093 limits assumed): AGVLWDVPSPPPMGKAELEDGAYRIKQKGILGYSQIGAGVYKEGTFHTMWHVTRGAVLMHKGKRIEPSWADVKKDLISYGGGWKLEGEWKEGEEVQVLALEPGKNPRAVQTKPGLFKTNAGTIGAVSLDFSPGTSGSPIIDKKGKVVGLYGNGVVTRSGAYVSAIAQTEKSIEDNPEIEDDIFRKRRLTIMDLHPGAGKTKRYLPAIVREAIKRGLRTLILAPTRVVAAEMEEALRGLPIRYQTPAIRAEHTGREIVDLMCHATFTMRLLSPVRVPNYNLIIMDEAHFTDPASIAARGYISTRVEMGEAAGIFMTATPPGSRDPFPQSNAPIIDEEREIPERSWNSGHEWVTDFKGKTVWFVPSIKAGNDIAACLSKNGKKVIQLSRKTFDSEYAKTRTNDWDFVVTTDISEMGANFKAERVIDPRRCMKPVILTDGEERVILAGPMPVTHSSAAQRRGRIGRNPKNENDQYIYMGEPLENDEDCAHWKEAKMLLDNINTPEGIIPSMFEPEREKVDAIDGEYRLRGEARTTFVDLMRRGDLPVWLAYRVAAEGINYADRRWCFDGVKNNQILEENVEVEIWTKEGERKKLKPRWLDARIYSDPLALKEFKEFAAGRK
In data set [3] the test system is dengue virus type 2. In words: Antiviral activity against Dengue virus 2 infected in BHK21 cells assessed as reduction in virus replication after 72 hrs by renilla luciferase reporter gene assay. As to conditions: BHK-21, 72 h. In kind it is functional, organism-based.
The target in data set [4] is T1, Genome polyprotein. As to the kind of experiment: Inhibition of RNA unwinding activity of thioredoxin/His6 tagged Dengue virus 2 TSV01 NS3 helicase (171 to 618 residues) expressed in Escherichia coli Rosetta (DE3) using Cy5-MBHA as substrate by fluorescence assay.
Target sequence in this assay (P29990 1476-2093 limits assumed): as above
Data set [5] deals with dengue virus type 2. As to the kind of experiment: Antiviral activity against Dengue virus 2 NGC infected in human A549 cells assessed as reduction in virus replication after 48 hrs by renilla luciferase reporter gene assay. In kind it is functional, organism-based. As to conditions: A549, 48 h. Background: In a reporter assay the amount or activity of a reporter protein is the signal.

The subject of data set [6] is dengue virus type 4. In words: Antiviral activity against Dengue virus 4 H241 VR-1257 infected in african green monkey Vero cells assessed as reduction in viral titer after 48 hrs by plaque assay. As to conditions: H241 VR-1257, Vero. It counts as functional, organism-based.
Data set [7] concerns dengue virus type 3. In words: Antiviral activity against Dengue virus 3 H87 VR-1256 infected in african green monkey Vero cells assessed as reduction in viral titer after 48 hrs by plaque assay. It counts as functional, organism-based. As to conditions: H87 VR-1256, Vero.
Data set [8] concerns dengue virus type 2. As to the kind of experiment: Antiviral activity against Dengue virus 2 NGC VR-1255 infected in african green monkey Vero cells assessed as reduction in viral titer after 48 hrs by plaque assay. As to conditions: NGC VR-1255, Vero. It counts as functional, organism-based.
Data set [9] deals with dengue virus type 1. As to the kind of experiment: Antiviral activity against Dengue virus 1 TH-Sman VR-344 infected in african green monkey Vero cells assessed as reduction in viral titer after 48 hrs by plaque assay. In kind it is functional, organism-based. As to conditions: TH-Sman VR-344, Vero.
Data set [10] can be described thus: Cytotoxicity against BHK21 cells after 1 hr by alamar blue assay. In kind it is cell-based, Mesocricetus auratus, BHK-21. As to conditions: hamster. For orientation: Resazurin is reduced to fluorescent resorufin, in cell work by metabolically active cells.
Data set [11] concerns dengue virus type 2. In words: Antiviral activity against Dengue virus 2 NGC infected in BHK21 cells after 24 hrs by plaque reduction assay. It counts as functional. As to conditions: BHK-21, 24 h. (In general: Plaques are areas of infected cells; plaque reduction assays count them against a control.)
A short description of data set [12]: Binding affinity to His-tagged Dengue virus 3 methyltransferase expressed in Escherichia coli Rosetta 2(DE3) by VP-ITC isothermal titration calorimetry. Further details: species or system dengue virus type 3.
Data set [13] has as its system dengue virus type 3. In words: Potency index, ratio of S-adenosyl-L-methionine Kd to sinefungin Kd for His-tagged Dengue virus 3 methyltransferase expressed in Escherichia coli Rosetta 2(DE3).
The nature of data set [14]: Inhibition of Dengue virus guanine N-7 methyltransferase using RNA substrate after 20 mins in presence of [methyl-3H]-AdoMet by microbeta counting analysis.
The next data set deals with Nonstructural protein 5 (Dengue virus, UniProt V5TFZ2). As to the kind of experiment: Inhibition of Dengue virus ribose 2'-O methyltransferase using RNA substrate after 20 mins in presence of [methyl-3H]-AdoMet by microbeta counting analysis.
Sequence of Nonstructural protein 5 (V5TFZ2 whole entry): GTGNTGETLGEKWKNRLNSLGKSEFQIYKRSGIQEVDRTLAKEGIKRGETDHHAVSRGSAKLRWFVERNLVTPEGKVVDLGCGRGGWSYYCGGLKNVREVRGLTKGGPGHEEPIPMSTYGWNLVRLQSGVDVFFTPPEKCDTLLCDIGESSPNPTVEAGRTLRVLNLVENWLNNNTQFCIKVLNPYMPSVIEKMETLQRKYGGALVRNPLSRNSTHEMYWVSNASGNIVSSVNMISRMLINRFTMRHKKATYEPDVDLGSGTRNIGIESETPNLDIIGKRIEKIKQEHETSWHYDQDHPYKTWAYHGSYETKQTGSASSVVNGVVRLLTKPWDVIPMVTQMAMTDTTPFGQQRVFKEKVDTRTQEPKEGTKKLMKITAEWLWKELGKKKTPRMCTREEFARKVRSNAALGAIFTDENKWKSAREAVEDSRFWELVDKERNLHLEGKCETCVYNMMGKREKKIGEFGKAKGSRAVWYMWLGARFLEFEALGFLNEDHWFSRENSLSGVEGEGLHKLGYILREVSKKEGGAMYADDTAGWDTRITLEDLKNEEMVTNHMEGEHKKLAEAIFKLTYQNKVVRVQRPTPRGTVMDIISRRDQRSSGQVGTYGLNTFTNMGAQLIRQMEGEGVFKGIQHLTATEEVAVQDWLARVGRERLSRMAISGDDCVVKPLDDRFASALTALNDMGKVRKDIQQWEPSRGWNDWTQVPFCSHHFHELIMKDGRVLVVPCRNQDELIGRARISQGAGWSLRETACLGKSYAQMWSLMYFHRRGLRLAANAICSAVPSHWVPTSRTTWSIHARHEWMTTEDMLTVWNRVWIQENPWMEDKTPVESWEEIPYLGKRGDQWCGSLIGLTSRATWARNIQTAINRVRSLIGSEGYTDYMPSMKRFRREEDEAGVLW
For data set [15], the target named is T1, Genome polyprotein. As to the kind of experiment: Inhibition of Dengue virus 2 NS2B-NS3 protease using Abz-Nle-Lys-Arg-Arg-Ser-3-(NO2)Tyr as substrate preincubated for 15 mins followed by addition of substrate measured after 15 mins by fluorescence assay.
Target sequence in this assay (P29990 1346-1475 limits assumed): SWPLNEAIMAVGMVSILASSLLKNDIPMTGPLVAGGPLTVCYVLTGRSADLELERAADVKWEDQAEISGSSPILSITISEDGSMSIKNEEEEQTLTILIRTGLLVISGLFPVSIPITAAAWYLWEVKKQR
Target sequence in this assay (P29990 1476-2093 limits assumed): as the sequence (P29990 1476-2093 limits assumed) above
Data set [16] concerns dengue virus type 2. As to the kind of experiment: Antiviral activity against Dengue virus 2 NGC infected through intraperitoneal route in AG129 mouse assessed as reduction of viral load in liver at 50 mg/kg, ip bid measured on day 3 by plaque assay relative to vehicle-treated control. It counts as functional.
In data set [17] the test system is dengue virus type 2. In words: Antiviral activity against Dengue virus 2 NGC infected through intraperitoneal route in AG129 mouse assessed as reduction of viral load in spleen at 50 mg/kg, ip bid measured on day 3 by plaque assay relative to vehicle-treated control. It counts as functional.
Data set [18] concerns dengue virus type 2. In words: Antiviral activity against Dengue virus 2 NGC infected in african green monkey Vero cells assessed as reduction in viral titer after 48 hrs by plaque assay. In kind it is functional, organism-based.
For data set [19], the system named is dengue virus type 2. In words: Antiviral activity against Dengue virus 2 NGC infected through intraperitoneal route in AG129 mouse assessed as reduction in peak plasma viremia at 50 mg/kg, ip bid measured on day 3 by plaque assay relative to vehicle-treated control. It counts as functional.
Data set [20] in a line: Oral bioavailability in AG129 mouse plasma at 50 mg/kg/day after 1 to 24 hrs by LC-MS/MS. It counts as ADME, organism-based.
For data set [21], the system named is dengue virus type 2. In words: Antiviral activity against Dengue virus 2 16681 infected in human HuH7 cells after 72 hrs by indirect immunofluorescent flow cytometry. In kind it is functional, organism-based. As to conditions: Dengue virus, 16681, Huh-7, 72 h.
For data set [22], the system named is dengue virus type 2. In words: Antiviral activity against Dengue virus 2 NGC infected in human K562 cells assessed as inhibition in live viral replication after 48 hrs by plaque assay. It counts as functional, organism-based. As to conditions: K562, 48 h.
Data set [23] deals with T1, Genome polyprotein. In words: Inhibition of recombinant Dengue virus type 2 NS2B-NS3 protease expressed in Escherichia coli C41 cells using GRR-AMC as substrate after 15 mins by fluorescence assay.
Target sequence in this assay (P29990 1346-1475 limits assumed): as the sequence (P29990 1346-1475 limits assumed) above
Target sequence in this assay (P29990 1476-2093 limits assumed): as the sequence (P29990 1476-2093 limits assumed) above
Data set [24] concerns dengue virus type 2. In words: Antiviral activity against Dengue virus 2 NGC infected in african green monkey Vero cells assessed as inhibition of viral yield after 48 hrs. It counts as functional, organism-based.
The test system of data set [25] is dengue virus type 4. As to the kind of experiment: Antiviral activity against Dengue virus 4 8124 infected in african green monkey Vero cells assessed as inhibition of viral yield after 48 hrs. It counts as functional, organism-based. As to conditions: Dengue virus, 8124, Vero.
The subject of data set [26] is dengue virus type 1. In words: Antiviral activity against Dengue virus 1 Hawaii infected in african green monkey Vero cells assessed as inhibition of viral yield after 48 hrs. It counts as functional, organism-based.
In data set [27] the test system is dengue virus type 3. As to the kind of experiment: Antiviral activity against Dengue virus 3 H87 infected in african green monkey Vero cells assessed as inhibition of viral yield after 48 hrs. In kind it is functional, organism-based.

Structures are written as SMILES. Where a SMILES comes first, the peptide text is derived from it. [ ]: non-standard residue; d: D form. The star is where a group is joined. Nle = CCCC[C@H](N)C(=O)O; Bz = O=C(c1ccccc1)* Bounds are passed on as bounds.

The term EC90 denotes the point of the concentration-response curve where the effect stands at 90%. For `Cc1nc(Nc2ncc(C(=O)Nc3c(C)cccc3Cl)s2)cc(N2CCN(CCO)CC2)n1` [DASATINIB], the EC90 with dengue virus type 2 [1] was found to be 4700 nM.
One may read the IC50 as the midpoint of a concentration-inhibition curve. As a reminder, the EC50 is the concentration at which the effect is half-maximal. As to `Cc1ccc2nc(-c3ccc4nc(-c5ccc(NC(=O)c6ccc7nc(-c8ccc(N)cc8)sc7c6)cc5)sc4c3)sc2c1S(=O)(=O)O`, the IC50 came out at 500 nM on Genome polyprotein [2] and 1500 nM against Genome polyprotein [4]. The EC50 in the data set on dengue virus type 2 [3] is 7100 nM.
On to `CCC(C)(C)C(=O)O[C@H]1C[C@@H](C)C=C2C=C[C@H](C)[C@H](CC[C@@H]3C[C@@H](O)CC(=O)O3)[C@H]21` [SIMVASTATIN], for which the EC50 with dengue virus type 2 [5] was in the range of 1820 to 8750 nM.
With `NC(=O)C1(N2CCCCC2)CCN(C(=O)CSc2nc3ccccc3o2)CC1`, the EC50 in the data set on dengue virus type 4 [6], in the data set on dengue virus type 3 [7], in the data set with dengue virus type 2 [8] and in the data set with dengue virus type 1 [9] was 203 to 272 nM in each case.
The term CC50 denotes the concentration that lowers cell viability or growth by half. The IC90 is the point of the concentration-response curve where the effect stands at 90%. Consider `N#C/C(=N\Nc1cccc(Cl)c1)C(=O)c1ccco1`, for which, in data set [10], the CC50 at 1 h was more than 100000 nM. This molecule had an IC90 in the data set on dengue virus type 2 [11] of 16900 nM.
As a reminder, the Kd is the free concentration of one partner at which half of the binding sites on the other are occupied at equilibrium, for simple one-to-one binding. As for `Nc1ncnc2c1ncn2[C@@H]1O[C@H](C[C@@H](N)CC[C@H](N)C(=O)O)[C@@H](O)[C@H]1O` [SINEFUNGIN], the Kd in [12] was 136 nM. Besides, the Ratio with dengue virus type 3 [13] came to 6. Also, the IC50 in data set [14] was found to be 30 nM; on Nonstructural protein 5, 41 nM.
On to `Nc1ncnc2c1ncn2[C@@H]1O[C@H](CSCC[C@H](N)C(=O)O)[C@@H](O)[C@H]1O` [S-ADENOSYLHOMOCYSTEINE], for which the IC50 in data set [14] worked out at 1770 nM; at Nonstructural protein 5, 490 nM.
The term Ki denotes a measure of affinity in units of concentration, obtained from inhibition or displacement. With `CCCC[C@H](NC(=O)[C@H](CCCCN)NC(=O)[C@H](CCCNC(=N)N)NC(=O)c1ccccc1)C(N)=O` (Bz-Arg-Lys-[Nle]-NH2), affinity on Genome polyprotein [15] was put at a Ki of 15600 nM.
A word on the bioavailability: it is the share of a dose that reaches the circulation, judged against a reference dose that is usually intravenous. For `Nc1c(C(=O)Nc2nnc(-c3ccccc3)s2)sc2nc3c(cc12)CCCCC3`, the “fold change (FC)” value turned out to be 20 with dengue virus type 2 [16], 3 in the data set with dengue virus type 2 [17] and 52 in the data set on dengue virus type 2 [19]. Further, the EC50 in the data set with dengue virus type 2 [18] worked out at 16 nM. Further, in the data set on dengue virus type 2 [18], the EC90 stood at 125 nM. Besides, the bioavailability in data set [20] turned out to be 9.1%.
`COc1c(C)c2c(c(O)c1C/C=C(\C)CCC(=O)O)C(=O)OC2` [MYCOPHENOLIC ACID] came in with an EC50 in the data set on dengue virus type 2 [21] of 1900 nM.
As to `C=C(CC[C@]12O[C@H](C(=O)O)[C@@](O)(C(=O)O)[C@](C(=O)O)(O1)[C@H](OC(=O)/C=C/[C@@H](C)C[C@@H](C)CC)[C@H]2O)[C@@H](OC(C)=O)[C@H](C)Cc1ccccc1` [ZARAGOZIC ACIDS A], the EC50 in the data set with dengue virus type 2 [22] came out at 8300 nM.
Regarding `CC(=O)N[C@@H](CCCNC(=N)N)C(=O)N[C@H](C(=O)N[C@@H](CO)C(=O)N[C@@H](CCCCN)C(=O)N[C@@H](CCCCN)C(=O)N[C@@H](CCCNC(=N)N)C(N)=O)[C@@H](C)O` (Ac-RTSKKR-NH2), the Ki at Genome polyprotein [23] came to 12000 nM.
As for `CC[C@H](C)C(=O)O[C@H]1CCC=C2C=C[C@H](C)[C@H](CC[C@@H]3C[C@@H](O)CC(=O)O3)[C@H]21` [MEVASTATIN], the EC50 in the data set with dengue virus type 2 [5] is 1820 to 8750 nM.
In the case of `C[S+](CC[C@H](N)C(=O)[O-])C[C@H]1O[C@@H](n2cnc3c(N)ncnc32)[C@H](O)[C@@H]1O` (stereo partly specified) [ADEMETIONINE], the Kd in data set [12] stood at 826 nM.
For the molecule `C=CCn1c2ccc(Cl)cc2c(=O)c2cccc(OC)c21`, the EC50 with dengue virus type 2 [24], in the data set with dengue virus type 4 [25], in the data set on dengue virus type 1 [26] and in the data set on dengue virus type 3 [27] was 13500 to 27100 nM in each case.
Turning to `CC[C@H](C)C(=O)O[C@H]1C[C@@H](C)C=C2C=C[C@H](C)[C@H](CC[C@@H]3C[C@@H](O)CC(=O)O3)[C@H]21` [LOVASTATIN], the EC50 with dengue virus type 2 [5] is 1820 to 8750 nM.
On to `N#C/C(=N\Nc1ccc(C(F)(F)F)cc1)C(=O)c1ccco1`, for which, in [10], the CC50 at 1 h came out at 84500 nM. The molecule further gave an IC90 with dengue virus type 2 [11] of 1500 nM.

The record behind these values is ChEMBL document CHEMBL4431301, “The Medicinal Chemistry of Dengue Virus” (J Med Chem, 2016).
